# Entries after “also recorded” stand apart in the source; their conditions may differ. Where a SMILES comes first, the peptide text is derived from it. [ ]: non-standard residue; d: D form. The star is where a group is joined. ξ: configuration not given here. NH(TEMPO-4-yl) = CC1(C)CC(N*)CC(C)(C)N1[O]; Orn = NCCC[C@H](N)C(=O)O; Cbz = O=C(OCc1ccccc1)*; Boc = CC(C)(C)OC(=O)*; ξOrn = NCCCC(N)C(=O)O; X1 = CC1CCN=C(N*)S1
# Columns and labels:
# MECs [1] = assay: ActD-induced apoptosis in MECs (annexin V, caspase-3, DNA fragmentation); settings: for DNA fragmentation / caspase-3 activation / number of annexin V-positive cells (PS externalization): 10 μM, ActD 100 ng/mL
# Procedure: The ability of 5a, 5b, and 4-AT to protect cells against apoptosis triggered by actinomycin D (“ActD”) was also tested. MECs were pretreated with 10 μM 4-AT, 5a, or 5b then incubated with ActD at a concentration of 100 ng/mL.
# Externalization of PS was analyzed by flow cytometry using an annexin V kit. Cells were harvested by trypsinization at the end of incubation and then stained with annexin V-FITC and propidium iodide (“PS”). Ten thousand cell events were collected on a FACScan flow cytometer. Annexin V-positive and PI-negative cells were considered apoptotic.
# Activation of capase-3, a cysteine protease only activated in the execution phase of apoptosis, was determined using an EnzChek capsase-3 assay kit.
# These DNA fragments are eluted, stained with propidium iodide and analyzed using flow cytometry. A cell population with decreased DNA content was considered a fraction of apoptotic cells.
# [2] = test system: mouse embryonic cells (MEC); assay: EPR-based analysis of integration and reduction of nitroxide Gramicidin S-peptidyl conjugates in MECs; assay type: cell-based; settings: 10 μM, whole cells, cytosol fractions
# Procedure: Electron paramagnetic resonance (“EPR”) spectroscopy was used to monitor the cellular delivery of compounds 5a and 5b shown in FIG. 3 in mouse embryonic cells (“MEC”).
# The following conditions were used during the EPR-based analysis of the integration and reduction of nitroxide Gramicidin S-peptidyl conjugates in MECs. The MECs at a concentration of 10 million MECs per mL were incubated with 10 μM of 4-AT and compound 5a, respectively. Recovered nitroxide radicals in whole cells, mitochondria, and cytosol fractions were resuspended in phosphate buffer saline (“PBS”) in the presence and absence, respectively, of 2 μM K3Fe(CN)6.
# [3] = test system: irradiated uroepithelial cells; assay: NO and peroxynitrite production in irradiated uroepithelial cells; assay type: cell-based; settings: 4-amino-TEMPO 100 μM, AMT 10 μM; capsaicin evoked; 24 hours after irradiation
# Procedure: Further physiological studies were conducted to determine the effects of peptide-targeted AMT and 4-amino-TEMPO on NO and peroxynitrite production in irradiated uroepithelial cells. The cells were cultured in an 8-well slide chamber for 3 days and then microsensor measurements were taken 24 hours after irradiation.
# In cells treated with high-dose conjugated 4-amin-TEMPO (100 μM), peroxynitrite production was decreased by approximately 4-fold.
# [4] = test system: mitochondria of 32D c 13 hemopoietic cells; assay: Mass spectrometry of compounds in mitochondria isolated from 32D cl 3 cells; assay type: cell-based, murine; settings: 100 μM; two hours at 37° C.
# Procedure: An unconjugated and conjugated NOS antagonist, (AMT, 100 μM) and an unconjugated and conjugated nitroxide derivative (4-amino-TEMPO, 100 μM) were incubated for two hours at 37° C. with 32D c 13 hemopoietic cells.
# Following incubation, the cells were lysed and the mitochondria isolated for a mass spectrometry analysis where compounds isolated from mitochondria were identified as Na+ adducts. […] Thus, the targeting peptides successfully direct a NOS antagonist and a nitroxide to the mitochondria.
# MECs [5] = assay: Intracellular superoxide generation (DHE flow cytometry) in ActD-treated MECs; assay type: cell-based, mouse; settings: 10 μM pretreatment; ActD 100 ng/mL
# Procedure: Determination of intracellular superoxide radicals. Oxidation-dependent fluorogenic dye, dihydroethidium (“DHE”, Molecular Probes) was used to evaluate intracellular production of superoxide radicals. DHE is cell permeable and, in the presence of superoxide, is oxidized to fluorescent ethidium which intercalates into DNA. The fluorescence of ethidium was measured using a FACscan (Becton-Dickinson, Rutherford, N.J.) flow cytometer, equipped with a 488-nm argon ion laser and supplied with the Cell Quest software. Mean fluorescence intensity from 10,000 cells were acquired using a 585-nm bandpass filter (FL-2 channel).
# [6] = test system: 32D cl 3 mouse hematopoietic progenitor cell line; assay: Irradiation survival curves of 32D cl 3 cells with JP4-039; assay type: cell-based; settings: 10 μM
# Procedure: Irradiation survival curves were performed on cells from the 32D cl 3 mouse hematopoietic progenitor cell line, incubated in 10 μM JP4-039 for 1 hour before irradiation, or plated in methylcellulose containing 10 μM […] after irradiation. Cells were irradiated from 0 to 8 Gy, plated in 0.8% methylcellulose containing media, and incubated for 7 days at 37° C. Colonies of greater than 50 cells were counted and data analyzed by linear quadratic and single-hit, multi-target models.
# [7] = test system: mice exposed to total body irradiation; assay: Survival of mice after total body irradiation; assay type: in vivo, mouse
# Procedure: In FIG. 17A, mice received intraperitoneal injection of 10 mg per kilogram of each of the chemicals indicated in FIG. 5, then 24 hours later received 9.75 Gy total body irradiation according to published methods. Mice were followed for survival according to IACUC regulations. […] (P=0.0008). In FIG. 17B, mice received intraperitoneal injection of JP4-039 either 10 minutes before (square symbols) or 4 hours after (triangle symbols) irradiation with 9.75 Gy.
# Groups of 15 mice received intraperitoneal injection of 10 mg. per kilogram of each indicated GS-nitroxide compound or carrier (Cremphora plus alcohol at 1 to 1 ratio, then diluted 1 to 10 in distilled water). Mice received 10 mg per kilogram intra-peritoneal injection 24 hours prior to total body irradiation. Control mice received radiation alone. […] (P=0.0005)
# [8] = test system: p16 in primary MEFs from Ercc1−/− mouse embryos; assay: p16 immunofluorescence in Ercc1−/− MEFs under 20% oxygen; assay type: cell-based; settings: 1 uM, 48 hrs
# Procedure: To test the protective activity of JP4-039, cultures of primary MEFs were prepared from Ercc1^−/− mouse embryos and grown under 20% oxygen (ambient air), which creates oxidative stress in these cells that are hypersensitive to reactive oxygen species. The cells were then either treated with a concentration of 1 uM XJB-5-131, JP4-039, JED-E71-37 or JED-E71-58, or left untreated (media), and then after 48 hrs the level of p16, a marker of irreversible cellular senescence, was measured by immunofluorescence staining.
# [9] = test system: MEF cells prepared from wild-type mouse embryos; assay: Toxicity of JP4-039 in wild-type MEF cultures; assay type: cell-based; settings: up to 10 μM, 48 hours
# Procedure: (§1) To assess the therapeutic potential of JP4-039, tests for safety and protective activity were performed. FIGS. 35 and 36 show the results of tests to evaluate whether varying concentrations of JP4-039 produce toxic effects after 48 hours in cultures of MEF cells prepared from Ercc1^−/− or wild-type mouse embryos, respectively.
# [10] = test system: KM101 human marrow stromal cells; assay: Irradiation survival of KM101 cells with JP4-039; assay type: cell-based; settings: 10 μM
# Procedure: KM101 cells were incubated in media alone or in JP4-039 (10 μM) for one hour before irradiation or 24 hours after irradiation. The cells were irradiated to doses ranging from 0 to 6 Gy and plated in 4 well plates. Seven days later the cells were stained with crystal violet and colonies of greater than 50 cells counted. Cells incubated in JP4-039 either before or after irradiation were more radioresistant as shown by an increased shoulder of n=2.3±0.2 or 2.2±0.2, respectively compared to n of 1.1±0.1 for the KM101 cells (p=0.0309 or 0.0386, respectively).
# [11] = test system: MEF cells prepared from Ercc1−/− mouse embryos; assay: Toxicity of JP4-039 in Ercc1−/− MEF cultures; assay type: cell-based; settings: 48 hours
# Procedure: as §1
# [12] = test system: γ-H2AX in primary MEF cells from Ercc1−/− mice; assay: γ-H2AX immunostaining in Ercc1−/− MEFs under oxidative stress; assay type: cell-based, mouse; settings: 1 μM, 48 hours
# Procedure: Next, the abilities of these two agents, as well as XJB-5-131 and JP4-039, each at a concentration of 1 μM, were tested for their ability to prevent oxidation-induced DNA double-strand breaks in cell cultures prepared, and oxidatively stressed, as in the preceding paragraph. Treated as well as untreated cells were, after 48 hours of treatment, immunostained for γ-H2AX, a marker of DNA double-strand breaks as well as cellular senescence.
# mitochondrial membrane = assay: Quantitative mass spectrometry of AMT peptide conjugates permeating the mitochondrial membrane; assay type: cell-based; settings: relative quantification of conjugate at the target site
# Procedure: Quantitative mass spectrometry studies were used to compare the effectiveness of several AMT peptide conjugates in permeating the mitochondrial membrane, specifically XJB-5-234, XJB-5-133, XJB-5-241, and XJB-5-127. The fmole/10 μM mitochondrial protein ratio provides a relative quantification of conjugate concentration at the target site.
smiles,measurement,setting,value
"CC1(C)CC(N)CC(C)(C)N1[O] [4-amino-TEMPO, reference compound]",protection against ActD-induced apoptosis,MECs [1]; 10 μM / low concentrations,afforded no protection
same,EPR signals of nitroxide radicals; integration into cells and mitochondria,[2],did not effectively permeate cells or the mitochondria
same,peroxynitrite formation,[3],comparable amount of peroxynitrite
same,"permeation of the mitochondrial membrane (MS, Na+ adducts)",[4],only permeate the mitochondrial membrane with the assistance of the attached GS-derived targeting sequence
same,intracellular superoxide generation,MECs [5],had no effect
CC(C)C[C@@H](/C=C/[C@H](Cc1ccccc1)C(=O)N1CCC[C@H]1C(=O)N[C@H](C(=O)N[C@@H](CCCNC(=O)OCc1ccccc1)C(=O)NC1CC(C)(C)N([O])C(C)(C)C1)C(C)C)NC(=O)OC(C)(C)C [5a],DNA fragmentation,MECs [1],prevented DNA fragmentation
same,caspase-3 activation,MECs [1],prevented caspase-3 activation
same,number of annexin V-positive cells (PS externalization),MECs [1],reduced the number of annexin V•positive cells
same,intracellular superoxide generation,MECs [5],completely inhibited
CC(C)C[C@H](NC(=O)OC(C)(C)C)C(=O)N[C@H](Cc1ccccc1)C(=O)N1CCC[C@H]1C(=O)N[C@H](C(=O)N[C@@H](CCCNC(=O)OCc1ccccc1)C(=O)NC1CC(C)(C)N([O])C(C)(C)C1)C(C)C [5b] (Boc-L[dF]PV[Orn](Cbz)-{NH(TEMPO-4-yl)}),DNA fragmentation,MECs [1],prevented DNA fragmentation
same,caspase-3 activation,MECs [1],prevented caspase-3 activation
same,number of annexin V-positive cells (PS externalization),MECs [1],reduced the number of annexin V•positive cells
same,protection or cytotoxicity at higher concentration,MECs [1]; concentrations in excess of 10 μM,either less protective or exhibited cytotoxicity
same,intracellular superoxide generation,MECs [5],completely inhibited
"CC1CCN=C(N)S1 (stereo not drawn) [AMT, 2-amino-6-methyl-thiazine]",peroxynitrite formation,[3],comparable amount of peroxynitrite
same,"permeation of the mitochondrial membrane (MS, Na+ adducts)",[4],do not enter the mitochondria membrane in substantial quantities
"CC(C)C[C@@H](/C=C/CC(=O)NC1CC(C)(C)N([O])C(C)(C)C1)NC(=O)OC(C)(C)C [JP4-039, TEMPO-4-yl-(S,E)-5-(tert-butoxycarbonylamino)-7-methyloct-3-enamide]",hematopoietic cell radiation mitigation,[6],effective hematopoietic cell radiation mitigator
same,survival of mice,"[7]; 9.5 Gy total body irradiation, 10 mg per kilogram intraperitoneal 24 hours prior",increases survival
same,survival of mice,"[7]; 9.75 Gy total body irradiation, 10 mg per kilogram intraperitoneal",significant increase in survival; also recorded: increases survival
same,level of p16,[8],much lower
same,toxicity,[9],no signs of toxicity were observed
same,mitigation of irradiation damage,[10],effective mitigator
same,change in the Do,[10]; before or after irradiation,no significant change
same,cellular proliferation relative to untreated control cells,[11]; Ercc1−/− or wild-type MEF,enhanced
same,toxicity,[11]; up to 10 μM,no signs of toxicity were observed
same,γ-H2AX (oxidation-induced DNA double-strand breaks),[12],also effective
"CC(C)C[C@H](NC(=O)OC(C)(C)C)C(=O)N[C@H](Cc1ccccc1)C(=O)N1CCC[C@H]1C(=O)N[C@H](C(=O)NC(CCCNC(=O)OCc1ccccc1)C(=O)NC1=NCCC(C)S1)C(C)C (stereo partly drawn) [XJB-5-127, Boc-Leu-^DPhe-Pro-Val-Orn(Cbz)-AMT] (Boc-L[dF]PV[ξOrn](Cbz)-X1)",fmole/10 μM mitochondrial protein,mitochondrial membrane,50.8 fmole/10 μM mitochondrial protein
"CC(C)C[C@@H](/C=C/[C@H](Cc1ccccc1)C(=O)N1CCC[C@H]1C(=O)N[C@H](C(=O)N[C@@H](CCCNC(=O)OCc1ccccc1)C(=O)NC1=NCCC(C)S1)C(C)C)NC(=O)OC(C)(C)C (stereo partly drawn) [XJB-5-133, Boc-leu-ψ[(E)-CH═CH]-^DPhe-Pro-Val-Orn(Cbz)-AMT]",fmole/10 μM mitochondrial protein,mitochondrial membrane,89.8 fmole/10 μM mitochondrial protein
"CC(C)C[C@@H](/C=C/[C@H](Cc1ccccc1)C(=O)NC1=NCCC(C)S1)NC(=O)OC(C)(C)C (stereo partly drawn) [XJB-5-234, Boc-Leu-[ψ(E)-CH═CH]-^DPhe-AMT]",fmole/10 μM mitochondrial protein,mitochondrial membrane,1.45 fmole/10 μM mitochondrial protein
"C/C(=C\[C@H](Cc1ccccc1)C(=O)N1CCC[C@H]1C(=O)N[C@H](C(=O)NC(CCCNC(=O)OCc1ccccc1)C(=O)NC1=NCCC(C)S1)C(C)C)[C@H](CC(C)C)NC(=O)OC(C)(C)C (stereo partly drawn) [XJB-5-241, Boc-Leu-ψ[(E)-C(CH3)═CH]-^DPhe-Pro-Val-Orn(Cbz)-AMT]",fmole/10 μM mitochondrial protein,mitochondrial membrane,103.3 fmole/10 μM mitochondrial protein
